A value given as a limit tells only on which side of the number the result lay.

One experiment has as its target T1, 5-HT2B (Homo sapiens, UniProt P41595).
T1 construct: expressed in transfected cells
The experiment in a line: Radioligand binding, 5-HT2B. Conditions: for Max % inhibition: radioligand binding, human 5-HT2B.

In experiment [1] the test system is 5-HT2A. The experiment in a line: Ca++ (calcium mobilization), 5-HT2A. Type of experiment: cell-based, human. Conditions: Ca++, human; calculated using ΔΔlog(Emax/EC50), reference = 1. As for the experimental part:
(§1) In vitro pharmacology studies were performed to evaluate the effects of compound 2-1 on functional activity of several 5-HT receptors using recombinant target overexpression cell culture systems. The effect of compound 2-1 on G protein-dependent signaling was investigated at 5-HT2A, 5-HT2B, and 5-HT2C receptors with calcium mobilization and IPOne assays; and at 5-HT1A, 5-HT1B, 5-HT1F, 5-HT5A, and 5-HT7D receptors with a cAMP assay. G protein-independent signaling was investigated at the 5-HT2A receptor with a β-Arrestin assay.
(§2) In vitro pharmacology studies were performed to evaluate the effects of compound 2-2 on functional activity at several 5-HT receptors using recombinant target overexpression cell culture systems. The effect of compound 2-2 on G protein-dependent signaling was investigated at 5-HT2A, 5-HT2B, and 5-HT2C receptors with calcium mobilization and IPOne assays; and at 5-HT1A, 5-HT1B, 5-HT1F, 5-HT5A, and 5-HT7D receptors with a cAMP assay. G protein-independent signaling was investigated at the 5-HT2A receptor with a β-arrestin assay. […] In Table 4, 5-HT receptor selectivity was calculated using ΔΔlog(Emax/EC50). Assay reference α-Me-5-HT or 5-HT was used for normalization at each receptor (5-HT2A/5-HT2B selectivity=1; 5-HT2A/5-HT2C selectivity=1). ND in Table 4 indicates, not determined, plateau was not reached within the concentration range tested to determine Emax.

The target in a further experiment is T2, 5-HT2C (Homo sapiens, UniProt P28335).
T2 construct: expressed in transfected cells
T2 sequence (P28335 33-458): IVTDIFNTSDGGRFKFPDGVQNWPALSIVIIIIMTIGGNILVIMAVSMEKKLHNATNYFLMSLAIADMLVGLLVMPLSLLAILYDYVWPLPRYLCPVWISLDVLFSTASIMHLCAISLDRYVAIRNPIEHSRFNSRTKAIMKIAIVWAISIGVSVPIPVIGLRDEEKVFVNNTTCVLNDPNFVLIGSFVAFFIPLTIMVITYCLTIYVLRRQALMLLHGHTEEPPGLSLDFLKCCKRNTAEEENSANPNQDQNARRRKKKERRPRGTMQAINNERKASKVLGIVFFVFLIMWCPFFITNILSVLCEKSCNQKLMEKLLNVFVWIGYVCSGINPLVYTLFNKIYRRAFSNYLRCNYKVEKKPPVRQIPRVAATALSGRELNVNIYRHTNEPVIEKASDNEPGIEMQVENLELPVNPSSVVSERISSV
The experiment in a line: Ca++ (calcium mobilization), 5-HT2C. Format: cell-based. To be noted: for Emax: Ca++, human 5-HT2C, read-out: Emax (%5-HT). As for the experimental part:
as §1, §2

The next experiment addresses T3, 5-HT1A (Homo sapiens, UniProt P08908).
T3 construct: expressed in transfected cells
T3 sequence (P08908 1-422): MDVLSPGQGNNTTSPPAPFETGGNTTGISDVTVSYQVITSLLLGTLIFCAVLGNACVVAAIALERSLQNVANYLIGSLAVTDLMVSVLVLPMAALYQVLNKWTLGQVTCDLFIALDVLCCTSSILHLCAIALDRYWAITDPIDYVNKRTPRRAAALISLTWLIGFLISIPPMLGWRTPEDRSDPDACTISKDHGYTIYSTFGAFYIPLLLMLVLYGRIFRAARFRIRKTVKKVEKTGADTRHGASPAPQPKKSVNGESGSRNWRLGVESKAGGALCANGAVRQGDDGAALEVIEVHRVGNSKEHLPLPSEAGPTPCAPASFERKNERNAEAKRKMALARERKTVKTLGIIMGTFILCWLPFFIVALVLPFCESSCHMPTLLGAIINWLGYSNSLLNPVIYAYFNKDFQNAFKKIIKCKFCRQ
Briefly: cAMP, 5-HT1A. Type of experiment: cell-based. On the procedure: as §1, §2

Another experiment addresses T4, 5-HT1B (Homo sapiens, UniProt P28222).
T4 construct: expressed in transfected cells
Briefly: cAMP, 5-HT1B. Type of experiment: cell-based. As for the experimental part:
as §1, §2

Another experiment addresses T5, 5-HT5A (Homo sapiens, UniProt P47898).
T5 construct: expressed in transfected cells
The experiment in a line: cAMP, 5-HT5A. Format: cell-based. On the procedure:
as §1, §2

The next experiment concerns the target 5-HT2A (rat) (Rattus norvegicus, UniProt P14842). Briefly: IPOne, rat 5-HT2A. Format: cell-based. To be noted: for Emax / 5-HT2A/5-HT2B Selectivity (rat): IPOne; for Emax: rat 5-HT2A, read-out: Emax (% α-Me-5-HT); for 5-HT2A/5-HT2B Selectivity (rat): rat receptors. An excerpt: (§3) Overall, in vitro activity at rodent 5-HT2A and 5-HT2B receptors is consistent with the human receptor results, with compound 2-1 acting as a potent and selective 5-HT2A agonist.
(§4) Overall, in vitro activity at rodent 5-HT2A and […] receptors is consistent with the human receptor results, with compound 2-2 acting as a potent and selective 5-HT2A agonist. In Table 5, ND indicates not determined.

The next experiment addresses 5-HT2B (rat) (Rattus norvegicus, UniProt P30994). Briefly: IPOne, rat 5-HT2B. Format: cell-based.
Text: as §3, §4

In experiment [2] the target is T6, 5-HT2A (Homo sapiens, UniProt P28223). The experiment in a line: IPOne, 5-HT2A. Type of experiment: cell-based. On the set-up: expressed in transfected cells. Conditions: for Emax: read-out: Emax (% α-Me-5-HT). As for the experimental part:
as §1, §2

Experiment [3] deals with T6, 5-HT2A. Briefly: β-Arrestin, 5-HT2A. Type of experiment: cell-based. More on the design: expressed in transfected cells. To be noted: for Emax: read-out: Emax (%5-HT). On the procedure: as §1, §2

T5 sequence (P47898 whole entry): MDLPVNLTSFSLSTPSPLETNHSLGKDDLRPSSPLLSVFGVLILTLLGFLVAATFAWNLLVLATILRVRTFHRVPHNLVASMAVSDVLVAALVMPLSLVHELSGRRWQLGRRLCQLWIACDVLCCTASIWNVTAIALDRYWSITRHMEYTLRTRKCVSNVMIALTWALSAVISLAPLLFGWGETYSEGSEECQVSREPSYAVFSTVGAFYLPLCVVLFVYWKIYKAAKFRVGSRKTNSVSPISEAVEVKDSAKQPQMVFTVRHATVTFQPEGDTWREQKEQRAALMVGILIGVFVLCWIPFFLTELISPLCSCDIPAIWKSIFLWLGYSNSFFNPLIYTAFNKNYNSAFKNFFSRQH
T6 sequence (P28223 whole entry): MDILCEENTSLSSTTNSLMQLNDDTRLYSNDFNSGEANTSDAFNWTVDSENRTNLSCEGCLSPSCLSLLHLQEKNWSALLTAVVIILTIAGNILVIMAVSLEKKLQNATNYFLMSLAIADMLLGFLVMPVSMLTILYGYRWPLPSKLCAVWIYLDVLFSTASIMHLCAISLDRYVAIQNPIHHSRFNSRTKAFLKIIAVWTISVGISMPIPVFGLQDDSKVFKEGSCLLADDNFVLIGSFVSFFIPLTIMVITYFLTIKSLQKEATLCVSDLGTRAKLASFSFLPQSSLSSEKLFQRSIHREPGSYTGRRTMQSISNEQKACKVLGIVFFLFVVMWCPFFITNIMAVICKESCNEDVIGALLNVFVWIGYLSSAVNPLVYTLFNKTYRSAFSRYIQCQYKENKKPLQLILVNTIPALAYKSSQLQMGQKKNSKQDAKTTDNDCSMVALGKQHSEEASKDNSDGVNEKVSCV
5-HT2A (rat), sequence (P14842 whole entry): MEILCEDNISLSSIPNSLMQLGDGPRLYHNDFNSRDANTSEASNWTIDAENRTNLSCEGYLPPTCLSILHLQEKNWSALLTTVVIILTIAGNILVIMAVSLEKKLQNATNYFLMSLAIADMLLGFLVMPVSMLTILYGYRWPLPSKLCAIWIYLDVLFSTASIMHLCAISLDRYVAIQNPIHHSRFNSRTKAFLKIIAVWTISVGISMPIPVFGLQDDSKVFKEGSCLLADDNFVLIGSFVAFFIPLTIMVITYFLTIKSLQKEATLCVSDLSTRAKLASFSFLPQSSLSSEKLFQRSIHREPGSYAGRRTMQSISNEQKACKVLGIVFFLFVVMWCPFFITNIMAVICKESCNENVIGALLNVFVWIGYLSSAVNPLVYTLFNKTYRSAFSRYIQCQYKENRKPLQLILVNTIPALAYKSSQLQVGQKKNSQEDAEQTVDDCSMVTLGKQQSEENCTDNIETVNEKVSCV
T1 sequence (P41595 whole entry): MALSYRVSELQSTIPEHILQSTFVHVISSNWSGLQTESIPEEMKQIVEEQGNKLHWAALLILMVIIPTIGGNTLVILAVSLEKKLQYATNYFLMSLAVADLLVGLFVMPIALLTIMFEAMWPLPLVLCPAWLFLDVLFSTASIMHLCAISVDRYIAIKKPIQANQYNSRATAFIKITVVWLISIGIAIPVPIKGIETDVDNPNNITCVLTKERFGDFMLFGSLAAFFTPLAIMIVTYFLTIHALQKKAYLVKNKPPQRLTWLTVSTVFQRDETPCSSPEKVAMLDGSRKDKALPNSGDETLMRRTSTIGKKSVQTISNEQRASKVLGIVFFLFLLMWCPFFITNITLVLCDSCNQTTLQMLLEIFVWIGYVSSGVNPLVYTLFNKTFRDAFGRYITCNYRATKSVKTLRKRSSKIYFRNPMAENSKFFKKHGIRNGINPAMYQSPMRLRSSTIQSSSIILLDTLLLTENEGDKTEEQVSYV
5-HT2B (rat), sequence (P30994 whole entry): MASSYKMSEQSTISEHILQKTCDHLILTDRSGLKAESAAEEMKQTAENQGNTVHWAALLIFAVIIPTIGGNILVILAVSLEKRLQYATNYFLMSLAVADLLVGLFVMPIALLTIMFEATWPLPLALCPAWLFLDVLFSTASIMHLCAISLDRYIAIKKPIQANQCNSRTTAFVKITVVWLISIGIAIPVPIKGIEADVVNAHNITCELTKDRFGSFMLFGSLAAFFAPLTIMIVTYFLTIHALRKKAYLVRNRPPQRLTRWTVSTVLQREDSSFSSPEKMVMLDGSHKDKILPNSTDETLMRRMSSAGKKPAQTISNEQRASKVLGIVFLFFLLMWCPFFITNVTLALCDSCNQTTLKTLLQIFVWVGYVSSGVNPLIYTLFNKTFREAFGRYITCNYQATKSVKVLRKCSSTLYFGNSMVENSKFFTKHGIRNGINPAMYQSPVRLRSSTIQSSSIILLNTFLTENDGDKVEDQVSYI
T4 sequence (P28222 whole entry): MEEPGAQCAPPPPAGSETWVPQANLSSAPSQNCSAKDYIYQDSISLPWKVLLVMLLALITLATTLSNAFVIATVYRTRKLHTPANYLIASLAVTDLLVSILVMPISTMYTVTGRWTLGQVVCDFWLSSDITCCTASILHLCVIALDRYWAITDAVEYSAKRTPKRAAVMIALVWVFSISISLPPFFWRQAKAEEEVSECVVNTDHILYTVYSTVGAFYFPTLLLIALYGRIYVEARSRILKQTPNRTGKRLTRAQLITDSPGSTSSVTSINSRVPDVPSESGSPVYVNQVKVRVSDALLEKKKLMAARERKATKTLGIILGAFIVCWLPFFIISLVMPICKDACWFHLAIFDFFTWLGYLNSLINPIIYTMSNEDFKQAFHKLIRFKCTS

Usually IC50 stands for the point on the concentration scale where inhibition reaches its midpoint. The low end stands for inhibition by little substance, the high end for a need for much substance. A word on the EC50: it is the concentration giving half of the maximal effect. What is called Emax is the maximal effect, on the per cent scale that the assay sets. In the case of `COc1ccc(OC)c(CCNCc2cc(C)cc(Cl)c2)c1` [Compound 2-1, N-(3-chloro-5-methylbenzyl)-2-(2,5-dimethoxyphenyl)ethan-1-amine], the IC50 at 5-HT2B was determined as 0.0849 µM. Besides, the Max % inhibition at 5-HT2B turned out to be 102.5%. In addition, in the experiment with 5-HT2A [1], the “5-HT2A/5-HT2C Selectivity” value is 77. Also, the EC50 on 5-HT2C is 0.0422 µM; at 5-HT1A, above 20 µM; at 5-HT1B it was above 100 µM; at 5-HT5A, 0.0252 µM; at 5-HT2A (rat), 0.00306 µM; at 5-HT2B (rat), above 1 µM. In addition, the results for the concentration giving a half-maximal response (EC50) on 5-HT2A [2] and on 5-HT2A [3] were 0.0028 µM and 0.0172 µM, respectively. Besides, the maximal effect (Emax) stood at 82% at 5-HT2C; 44.4% at 5-HT5A (cAMP, human 5-HT5A, read-out: Emax (%5-HT)); 99.5% at 5-HT2A (rat); 99.4% on 5-HT2A [2]; 89.3% at 5-HT2A [3]. Also, the “agonist activity (in words)” value on 5-HT5A (human 5-HT5A receptor) was “partial agonist activity”; at 5-HT2A (rat) (rat 5-HT2A receptor), “full agonist activity”; at 5-HT2B (rat) (rat 5-HT2B receptor), “inactive”. The “5-HT2A/5-HT2B Selectivity (rat)” value at 5-HT2A (rat) is on record as above 100000.

For the compound `COc1ccc(OC)c(CCNCc2cc(C)cc(F)c2)c1` [Compound 2-2, 2-(2,5-dimethoxyphenyl)-N-(3-fluoro-5-methylbenzyl)ethan-1-amine], the IC50 at 5-HT2B was 0.321 µM. The Max % inhibition on 5-HT2B amounted to 99.56%. Also, the “5-HT2A/5-HT2C Selectivity” value with 5-HT2A [1] is given as 56. Further, the half-maximal effective concentration (EC50) at 5-HT2C was 0.0735 µM; at 5-HT1A, above 1 µM; on 5-HT1B, above 100 µM; at 5-HT5A, above 30 µM; on 5-HT2A (rat) it was 0.0072 µM; at 5-HT2B (rat), above 1 µM. For the same compound, the half-maximal effective concentration (EC50) was 0.00919 µM on 5-HT2A [2] and 0.0258 µM at 5-HT2A [3]. The maximal response (Emax) on 5-HT2C came out at 88.2%; on 5-HT2A (rat), 105%; on 5-HT2A [2] it was 97.9%; on 5-HT2A [3], 82.1%. In addition, at 5-HT2A (rat), the “5-HT2A/5-HT2B Selectivity (rat)” value is above 100000.

(Values after patent US12343319B2, “Compositions and methods for treatment of diseases and disorders” (Atai Therapeutics Inc., priority 2023, dated 2025).)
